Laboratory results from patent publication US20250206722A1, “SMALL MOLECULE INHIBITORS OF TEA DOMAIN FAMILY MEMBERS” (The Scripps Research Institute, priority 2022, published 2025).
pIC50: −log10 of the molar value.

Key:
Assay type in all cases: cell-based
[1] = test system: transcriptional activity of TEADs; assay: TEAD reporter assay (MCF7 TEAD-LUC reporter cells); conditions: Homo sapiens, 24 hours, BrightGlo luminescence
Procedure, shortened: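 Luminescence (BrightGlo) was read after 24 h of compound treatment at 37 °C, 5 % CO2. Cells had been seeded at 5,000 per well in DMEM with 10 % FBS and insulin and rested 24 h first. Dosing used 20 points, 1:2 dilution from 20 μM final, triplicates.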

IMR32 cells = assay: IMR32 cytotoxicity assay; conditions: Homo sapiens, IMR-32, 72 h, 3 days, Cell TiterGlo
Experimental: IMR32 cells were obtained from American Type Culture Collection (ATCC, CCL-127) and cultured in DMEM (Corning, 10-013-CV) supplemented with 10% fetal bovine serum (Gibco, 10438-026) and 1% penicillin-streptomycin (Gibco, 15070063). Cells were trypsinized, resuspended in growth medium, and diluted to a concentrated of 20,000 cells/mL. 1,000 cells, 50 μL of cell suspension, per well were then plated in a white 384-well plate (Corning) and incubated at 37° C., 5% CO2. After 24 hours incubation, 100 nL of test compounds in DMSO, 20-point 1:2 dilution starting from 20 μM (final concentration) in triplicate, were transferred to each well using an Agilent Bravo instrument outfitted with a pintool head. Cells were incubated at 37° C., 5% CO2 for 3 days followed by the addition of 30 μL of Cell TiterGlo (Promega; diluted 1:6 in water) to each well and luminescence values recorded using an EnVision plate reader. […]

NCI-H226 cells [2] = assay: NCI-H226 proliferation assay (Wuxi AppTec); conditions: Homo sapiens, 168 h, 7 days, CellTiter-Glo, top dose 10, 3-fold dilution, 9 doses
Procedure, shortened: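 NCI-H226 cells were seeded at 500 cells/well overnight, then treated with compounds in a 9-point, 3-fold dilution from a top dose of 10 μM, with 0.2% DMSO. Plates were incubated 7 days at 37° C, 5% CO2. Viability was read by CellTiter-Glo luminescence, normalized to DMSO (max) and medium-only (min) controls.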

NCI-H226 cells [3] = assay: NCI-H226 proliferation assay (in house); conditions: Homo sapiens, 120 h, 5 days, Cell TiterGlo, 20-point 1:2 dilution from 20 μM
Procedure, shortened: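 Viability by CellTiter-Glo luminescence after 5-day compound exposure at 37 °C, 5% CO2. Compounds added 24 h post-seeding (500 cells/well, RPMI 1640 with 10% FBS) as 20-point, 2-fold series from 20 μM final, triplicate wells.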

Structure (SMILES)	pIC50 [1]	IC50 (NCI-H226 cells [2])	IC50 (NCI-H226 cells [3])	pIC50 (IMR32 cells)
C=CC(=O)N1CCC(c2nccnc2Nc2ccc(C(F)(F)F)cc2)CC1 [Example 26, 1-[4-(3-{[4-(trifluoromethyl)phenyl]amino}pyrazin-2-yl)piperidin-1-yl]prop-2-en-1-one]	8.70	0.02 µM	0.009 µM	5.00
C=CC(=O)N1CCN(c2nccnc2Nc2ccc(S(F)(F)(F)(F)F)cc2)CC1 [Example 31, 1-(4-(3-((4-(pentafluoro-16-sulfaneyl)phenyl)amino)pyrazin-2-yl)piperazin-1-yl)prop-2-en-1-one]	8.69	0.018 µM	0.0155 µM	< 5.30
C=CC(=O)N1CCN(c2nccnc2Nc2ccc(F)cc2)CC1 [Example 33, 1-(4-(3-((4-fluorophenyl)amino)pyrazin-2-yl)piperazin-1-yl)prop-2-en-1-one]	7.99	–	0.101 µM	< 4.70
C=CC(=O)N1CCN(c2nccnc2OC2CCC(F)(F)CC2)CC1 [Example 93, 1-(4-{3-[(4,4-difluorocyclohexyl)oxy]pyrazin-2-yl}piperazin-1-yl) prop-2-en-1-one]	8.15	–	0.078 µM	< 4.70
C=CC(=O)N1CCC(N(C)c2ccnc(Nc3ccc(C(F)(F)F)cc3)n2)CC1 [Example 124, 1-(4-(methyl(2-((4-(trifluoromethyl)phenyl)amino)pyrimidin-4-yl)amino)piperidin-1-yl)prop-2-en-1-one]	6.48	–	4.64 µM	5.38
C=CC(=O)N1CCN(c2ncccc2Nc2ccc(C(F)(F)F)cc2)CC1 [Example 134, 1-[4-(3-{[4-(trifluoromethyl)phenyl]amino}pyridin-2-yl)piperazin-1-yl]prop-2-en-1-one]	8.65	–	0.023 µM	< 5.00
C=CC(=O)N1CCN(c2cccnc2Nc2ccc(C(F)(F)F)cc2)CC1 [Example 143, 1-[4-(2-{[4-(trifluoromethyl)phenyl]amino}pyridin-3-yl)piperazin-1-yl]prop-2-en-1-one]	8.30	–	0.017 µM	4.70
CN(C)C/C=C/C(=O)N1CCN(c2nccnc2Nc2ccc(C(F)(F)F)cc2)CC1 [Example 167, 4-(dimethylamino)-1-(4-(3-((4-(trifluoromethyl)phenyl)amino)pyrazin-2-yl)piperazin-1-yl)but-2-en-1-one]	6.00	–	0.108 µM	5.00
CC(=O)N1CCN(c2nccnc2Nc2ccc(C(F)(F)F)cc2)CC1 [Example 168, 1-(4-(3-((4-(trifluoromethyl)phenyl)amino)pyrazin-2-yl)piperazin-1-yl)ethan-1-one]	6.31	–	> 10 µM	< 4.70
O=C(C(F)Cl)N1CCN(c2nccnc2Nc2ccc(C(F)(F)F)cc2)CC1 (centres unmarked) [Example 169, 2-chloro-2-fluoro-1-(4-(3-((4-(trifluoromethyl)phenyl)amino)pyrazin-2-yl)piperazin-1-yl)ethan-1-one]	7.88	–	0.037 µM	< 5.00
O=C(CCl)N1CCN(c2nccnc2Nc2ccc(C(F)(F)F)cc2)CC1 [Example 170, 2-chloro-1-(4-(3-((4-(trifluoromethyl)phenyl)amino)pyrazin-2-yl)piperazin-1-yl)ethan-1-one]	6.57	–	0.173 µM	6.12
N#CCC(=O)N1CCN(c2nccnc2Nc2ccc(C(F)(F)F)cc2)CC1 [Example 171, 3-oxo-3-(4-(3-((4-(trifluoromethyl)phenyl)amino)pyrazin-2-yl)piperazin-1-yl)propanenitrile]	5.65	–	5.25 µM	< 4.70
O=C(C1CO1)N1CCN(c2nccnc2Nc2ccc(C(F)(F)F)cc2)CC1 (centres unmarked) [Example 172, oxiran-2-yl(4-(3-((4-(trifluoromethyl)phenyl)amino)pyrazin-2-yl)piperazin-1-yl)methanone]	8.49	–	1.4 µM	5.00
CC(C)(C#N)N1CCN(c2nccnc2Nc2ccc(C(F)(F)F)cc2)CC1 [Example 176, 2-methyl-2-(4-(3-((4-(trifluoromethyl)phenyl)amino)pyrazin-2-yl)piperazin-1-yl)propanenitrile]	5.60	–	9.95 µM	< 5.00
C=CC(=O)N(C)CCOc1nccnc1Nc1ccc(C(F)(F)F)cc1 [Example 191, N-methyl-N-(2-((3-((4-(trifluoromethyl)phenyl)amino)pyrazin-2-yl)oxy)ethyl)acrylamide]	8.37	–	0.047 µM	5.00
C=CC(=O)NCCOc1nccnc1Nc1ccc(C(F)(F)F)cc1 [Example 192, N-(2-((3-((4-(trifluoromethyl)phenyl)amino)pyrazin-2-yl)oxy)ethyl)acrylamide]	7.75	–	1.78 µM	< 4.70

More lines, main results first:

pIC50 [1]	IC50 (NCI-H226 cells [2])	IC50 (NCI-H226 cells [3])	Structure (SMILES)	pIC50 (IMR32 cells)
7.64	–	0.198 µM	C=CC(=O)N1CCN(c2nccnc2Nc2ncc(C(F)(F)F)cn2)CC1 [Example 41, 1-(4-(3-((5-(trifluoromethyl)pyrimidin-2-yl)amino)pyrazin-2-yl)piperazin-1-yl)prop-2-en-1-one]	< 4.70
7.98	–	0.128 µM	C=CC(=O)N1CCN(c2nccnc2Nc2cnc(C(F)(F)F)nc2)CC1 [Example 52, 1-(4-(3-((2-(trifluoromethyl)pyrimidin-5-yl)amino)pyrazin-2-yl)piperazin-1-yl)prop-2-en-1-one]	< 4.70
7.72	–	0.347 µM	C=CC(=O)N1CCN(c2nccnc2NC2CCC(F)(F)CC2)CC1 [Example 66, 1-(4-(3-((4,4-difluorocyclohexyl)amino)pyrazin-2-yl)piperazin-1-yl)prop-2-en-1-one]	< 4.70
9.05	–	0.0115 µM	C=CC(=O)N1CCN(c2nccnc2Oc2ccc(C(F)(F)F)cc2)CC1 [Example 69, 1-(4-(3-(4-(trifluoromethyl)phenoxy)pyrazin-2-yl)piperazin-1-yl)prop-2-en-1-one]	< 4.70
8.15	–	20 µM	C=CC(=O)N1CCN(c2nccnc2N2CC(c3ccccc3)C2)CC1 [Example 106, 1-(4-(3-(3-phenylazetidin-1-yl)pyrazin-2-yl)piperazin-1-yl)prop-2-en-1-one]	< 4.70
6.55	–	0.91 µM	C=CC(=O)N1CCN(c2ccnc(Nc3ccc(C(F)(F)F)cc3)n2)CC1 [Example 123, 1-[4-(2-{[4-(trifluoromethyl)phenyl]amino}pyrimidin-4-yl)piperazin-1-yl]prop-2-en-1-one]	5.31
6.59	–	2.52 µM	C=CC(=O)N1CCN(c2nccc(Nc3ccc(C(F)(F)F)cc3)n2)CC1 [Example 125, 1-[4-(4-{[4-(trifluoromethyl)phenyl]amino}pyrimidin-2-yl)piperazin-1-yl]prop-2-en-1-one]	5.15
7.44	–	0.507 µM	C#CC(=O)N1CCN(c2nccnc2Nc2ccc(C(F)(F)F)cc2)CC1 [Example 173, 1-(4-(3-((4-(trifluoromethyl)phenyl)amino)pyrazin-2-yl)piperazin-1-yl)prop-2-yn-1-one]	6.69
< 4.70	–	> 20 µM	CC#CC(=O)N1CCN(c2nccnc2Nc2ccc(C(F)(F)F)cc2)CC1 [Example 174, 1-(4-(3-((4-(trifluoromethyl)phenyl)amino)pyrazin-2-yl)piperazin-1-yl)but-2-yn-1-one]	< 5.00
6.08	–	> 10 µM	N#CCN1CCN(c2nccnc2Nc2ccc(C(F)(F)F)cc2)CC1 [Example 175, 2-(4-(3-((4-(trifluoromethyl)phenyl)amino)pyrazin-2-yl)piperazin-1-yl)acetonitrile]	< 4.70
< 5.00	–	2.48 µM	C#CCN(C)C/C=C/C(=O)N1CCN(c2nccnc2Nc2ccc(C(F)(F)F)cc2)CC1 [Example 179, (E)-4-(methyl(prop-2-yn-1-yl)amino)-1-(4-(3-((4-(trifluoromethyl)phenyl)amino)pyrazin-2-yl)piperazin-1-yl)but-2-en-1-one]	< 4.70
5.67	–	5.36 µM	C=C(CN1CCCC1)C(=O)N1CCN(c2nccnc2Nc2ccc(C(F)(F)F)cc2)CC1 [Example 189, 2-(pyrrolidin-1-ylmethyl)-1-(4-(3-((4-(trifluoromethyl)phenyl)amino)pyrazin-2-yl)piperazin-1-yl)prop-2-en-1-one]	5.03
